From PubChem BioAssay (NCI)
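The concentration for 50% growth inhibition is given as GI50. TGI: total growth inhibition.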

Experiments:
Assay in all cases: NCI-60 cell line screen, 384-well format
SF-539 CNS = system: SF-539 CNS
UACC-62 melanoma = system: UACC-62 melanoma
KM12 colon = system: KM12 colon
OVCAR-4 ovarian = system: OVCAR-4 ovarian
M14 melanoma = system: M14 melanoma
EKVX NSCLC = system: EKVX NSCLC
MCF7 breast = system: MCF7 breast
NCI-H322M lung = system: NCI-H322M lung
OVCAR-5 ovarian = system: OVCAR-5 ovarian
COLO 205 colon = system: COLO 205 colon
A549 NSCLC = system: A549 NSCLC
NCI-H460 NSCLC = system: NCI-H460 NSCLC
NCI/ADR-RES ovarian = system: NCI/ADR-RES ovarian

With `O=C(/C=C/c1cccc(S(=O)(=O)Nc2ccccc2)c1)NO` the GI50 (SF-539 CNS) was 616 nM, the TGI (SF-539 CNS) was 2650 nM and the GI50 (UACC-62 melanoma) was 217 nM. For the same molecule, the TGI (UACC-62 melanoma) was 597 nM, the GI50 (KM12 colon) was 128 nM and the TGI (KM12 colon) was 1720 nM. For the same molecule, the GI50 (OVCAR-4 ovarian) was 1880 nM, the TGI (OVCAR-4 ovarian) was 5860 nM and the GI50 (M14 melanoma) was 537 nM. It also gave a TGI (M14 melanoma) of 2140 nM, a GI50 (EKVX NSCLC) of 1810 nM and a TGI (EKVX NSCLC) of 8530 nM. For the same molecule, the GI50 (MCF7 breast) was 264 nM, the TGI (MCF7 breast) was 1300 nM and the GI50 (NCI-H322M lung) was 465 nM. For the same molecule, the TGI (NCI-H322M lung) was 1840 nM, the GI50 (OVCAR-5 ovarian) was 369 nM and the TGI (OVCAR-5 ovarian) was 1480 nM. For the same molecule, the GI50 (COLO 205 colon) was 330 nM, the TGI (COLO 205 colon) was 791 nM and the GI50 (A549 NSCLC) was 422 nM. It also gave a TGI (A549 NSCLC) of 1590 nM, a GI50 (NCI-H460 NSCLC) of 350 nM and a TGI (NCI-H460 NSCLC) of 1500 nM. It also gave a GI50 (NCI/ADR-RES ovarian) of 210 nM and a TGI (NCI/ADR-RES ovarian) of 551 nM.
